Experimental findings from US11952388B2, “Crystal form of tri-cycle compound and application thereof” (FUJIAN AKEYLINK BIOTECHNOLOGY CO., LTD., priority 2018, dated 2024) are described below.

The structures appear in SMILES notation. Read-outs that look alike come from different tables or passages of the source. Where only a bound is given, the exact number is not on record here.

In data set [1] the target is T1, CYP2C9 (Homo sapiens, UniProt P11712).
T1 construct: from tissue; host or cells: human liver microsomes
T1 sequence (P11712 whole entry): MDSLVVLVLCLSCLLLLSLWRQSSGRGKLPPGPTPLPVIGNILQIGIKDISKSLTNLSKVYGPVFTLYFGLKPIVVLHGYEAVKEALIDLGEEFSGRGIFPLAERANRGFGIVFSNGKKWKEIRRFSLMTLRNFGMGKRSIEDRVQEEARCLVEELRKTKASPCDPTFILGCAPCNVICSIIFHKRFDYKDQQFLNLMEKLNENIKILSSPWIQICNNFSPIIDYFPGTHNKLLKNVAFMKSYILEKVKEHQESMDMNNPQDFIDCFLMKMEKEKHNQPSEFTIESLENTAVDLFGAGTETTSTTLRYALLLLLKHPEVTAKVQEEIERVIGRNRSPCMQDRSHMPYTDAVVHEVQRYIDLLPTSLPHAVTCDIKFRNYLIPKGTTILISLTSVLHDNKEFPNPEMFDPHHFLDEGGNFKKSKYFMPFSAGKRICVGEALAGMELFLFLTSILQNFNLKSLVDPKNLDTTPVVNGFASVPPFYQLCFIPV
The data set is described as follows: Inhibition of human liver microsomal cytochrome P450 isoenzymes. The data set is classed as in vitro ADME. The conditions noted are these: human liver microsomes. As to the method: (§1) Objectives of experiment: To determine the inhibitory effect of the test compound on the activity of human liver microsomal cytochrome P450 isoenzymes (CYP1A2, CYP2C9, CYP2C19, CYP2D6 and CYP3A4). Experimental operation: First, the test compound (10 mM) was diluted in a gradient to prepare the working solutions (100× final concentration). The concentrations of the working solutions were 5, 1.5, 0.5, 0.15, 0.05, 0.015 and 0.005 mM. Meanwhile, the working solutions of mixture (5 in 1) of positive inhibitors of each P450 isoenzyme (CYP1A2, CYP2C9, CYP2C19, CYP2D6 and CYP3A4) and the specific substrate of the isoenzymes were also prepared; the human liver microsomes frozen in the refrigerator at −80° C. were unfrozen on ice. After the human liver microsomes were completely dissolved, they were diluted with PB to prepare a certain concentration (0.253 mg/mL) of working solution; 20 uL of the substrate mixture was added into the reaction plate (20 μl PB was added into the Blank well) as well as 158 μL of human liver microsome working solution, then the reaction plate was placed on ice and set aside; at this time, 2 μL of each concentration of test compound (N=1) and specific inhibitor (N=2) were added to the corresponding well, the group without inhibitor (test compound or positive inhibitor) was added with the corresponding organic solvent as a control sample (the test compound control sample was 1:1 DMSO:MeOH, and the positive control sample was 1:9 DMSO:MeOH); after pre-incubating in a 37° C. water bath for 10 min, the reaction plate was added with 20 μL of coenzyme factor (NADPH) solution and water bathed at 37° C. for 10 min; 400 μL of cold acetonitrile solution (internal standard was 200 ng/mL Tolbutamide and Labetalol) was added to terminate the reaction; the reaction plate was then placed on a shaker and shaken for 10 min, followed by centrifuging at 4,000 rpm for 20 min; 200 μL of supernatant was added to 100 μL of water for sample dilution; finally, the plate was sealed, shaken well, and subjected to LC/MS/MS detection.
On the technique in general: Liver microsomes are a subcellular fraction often used to study metabolism.

The target of data set [2] is T2, CYP3A4 (Homo sapiens, UniProt P08684).
T2 construct: from tissue; host or cells: human liver microsomes
T2 sequence (P08684 whole entry): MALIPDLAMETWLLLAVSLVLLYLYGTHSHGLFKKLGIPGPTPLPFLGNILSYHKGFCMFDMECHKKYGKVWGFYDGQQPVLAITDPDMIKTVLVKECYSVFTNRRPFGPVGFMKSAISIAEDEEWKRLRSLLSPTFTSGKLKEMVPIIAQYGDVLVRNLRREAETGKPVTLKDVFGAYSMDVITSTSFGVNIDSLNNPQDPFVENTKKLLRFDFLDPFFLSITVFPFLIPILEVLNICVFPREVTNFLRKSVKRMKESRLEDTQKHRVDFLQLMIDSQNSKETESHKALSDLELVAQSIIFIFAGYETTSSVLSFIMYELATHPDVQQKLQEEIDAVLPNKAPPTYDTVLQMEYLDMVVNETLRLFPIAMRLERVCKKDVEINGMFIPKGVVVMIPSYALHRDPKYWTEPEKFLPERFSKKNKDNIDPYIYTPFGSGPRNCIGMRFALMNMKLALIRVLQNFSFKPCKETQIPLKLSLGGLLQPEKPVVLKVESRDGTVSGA
The description is as above. As to conditions: human liver microsomes. It counts as in vitro ADME. As to the method: as §1

Data set [3] addresses T3, CYP1A2 (Homo sapiens, UniProt P05177).
T3 construct: from tissue; host or cells: human liver microsomes
T3 sequence (P05177 1-516): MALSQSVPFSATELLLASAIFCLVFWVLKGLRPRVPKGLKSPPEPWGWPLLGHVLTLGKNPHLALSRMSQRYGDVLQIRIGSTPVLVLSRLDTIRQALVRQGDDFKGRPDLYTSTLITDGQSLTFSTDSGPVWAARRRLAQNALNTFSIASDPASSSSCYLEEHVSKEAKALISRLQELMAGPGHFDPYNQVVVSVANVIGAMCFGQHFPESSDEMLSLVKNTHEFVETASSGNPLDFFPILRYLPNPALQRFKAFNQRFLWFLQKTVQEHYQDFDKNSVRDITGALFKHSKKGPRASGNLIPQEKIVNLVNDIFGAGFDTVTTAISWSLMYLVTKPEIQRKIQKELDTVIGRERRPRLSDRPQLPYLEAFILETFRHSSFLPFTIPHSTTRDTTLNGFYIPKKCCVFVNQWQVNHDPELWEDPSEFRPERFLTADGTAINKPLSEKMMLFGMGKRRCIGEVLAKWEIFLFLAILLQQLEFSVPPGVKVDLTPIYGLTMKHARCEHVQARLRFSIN
Described as above. The data set is classed as in vitro ADME. As to conditions: human liver microsomes. As to the method: as §1

The target in data set [4] is T4, CYP2D6 (Homo sapiens, UniProt P10635).
T4 construct: from tissue; host or cells: human liver microsomes
T4 sequence (P10635 whole entry): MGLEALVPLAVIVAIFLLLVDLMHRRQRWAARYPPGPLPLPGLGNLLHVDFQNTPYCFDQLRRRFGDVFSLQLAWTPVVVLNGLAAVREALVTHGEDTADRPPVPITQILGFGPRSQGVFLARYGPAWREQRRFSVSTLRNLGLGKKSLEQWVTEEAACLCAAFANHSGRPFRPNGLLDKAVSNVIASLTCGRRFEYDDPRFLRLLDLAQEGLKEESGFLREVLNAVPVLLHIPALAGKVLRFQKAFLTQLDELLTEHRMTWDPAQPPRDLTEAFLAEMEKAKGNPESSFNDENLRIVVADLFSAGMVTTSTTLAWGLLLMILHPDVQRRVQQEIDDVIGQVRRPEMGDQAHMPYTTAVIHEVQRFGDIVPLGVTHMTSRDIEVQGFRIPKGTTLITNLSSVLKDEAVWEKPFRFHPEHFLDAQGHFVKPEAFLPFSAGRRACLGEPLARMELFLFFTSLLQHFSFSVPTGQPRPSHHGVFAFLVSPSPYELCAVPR
Described as above. It counts as in vitro ADME. The conditions noted are these: human liver microsomes. As for the experimental part:
as §1

Data set [5] has as its target T5, CYP2C19 (Homo sapiens, UniProt P33261).
T5 construct: from tissue; host or cells: human liver microsomes
The data set is described as above. It counts as in vitro ADME. The conditions noted are these: human liver microsomes. As to the method:
as §1

Data set [6] is described as follows: Pharmacokinetics of oral administration and intravenous injection in SD rats. As to conditions: male, rat, plasma. It counts as in vivo. As to the method:
2. Study on the Pharmacokinetics of Oral Administration and Intravenous Injection of the Compound Represented by Formula (I) in SD Rats The compound represented by formula (I) was mixed with 5% DMSO/55% polyethylene glycol 400/40% aqueous solution, vortexed and sonicated to obtain an approximately clear solution of 1 mg/mL, which was then filtered by a microporous membrane for later use. Male SD rats aged 7 to 10 weeks were selected and the candidate compound solution was administered intravenously at a dose of 1 mg/kg. The compound represented by formula (I) was mixed with 10% solutol aqueous solution, vortexed and sonicated to obtain an approximately clear solution of 1 mg/mL, which was then filtered through a microporous membrane for later use. Male SD rats aged 7 to 10 weeks were selected and the candidate compound solution was orally administered at a dose of 10 mg/kg. Whole blood was collected at a certain period of time to prepare plasma, drug concentration was analyzed by LC-MS/MS method, and pharmacokinetic parameters was calculated by Phoenix WinNonlin software (Pharsight, USA). Note: T1/2 means half-life; Vdss means apparent volume of distribution; Cl means clearance rate; AUC0_last means area below the drug-time curve; Tmax means peak time; Cmax means peak concentration; F % means oral bioavailability; iv means intravenous injection; PO means oral administration; mpk means mg/kg.

T5 sequence (P33261 whole entry): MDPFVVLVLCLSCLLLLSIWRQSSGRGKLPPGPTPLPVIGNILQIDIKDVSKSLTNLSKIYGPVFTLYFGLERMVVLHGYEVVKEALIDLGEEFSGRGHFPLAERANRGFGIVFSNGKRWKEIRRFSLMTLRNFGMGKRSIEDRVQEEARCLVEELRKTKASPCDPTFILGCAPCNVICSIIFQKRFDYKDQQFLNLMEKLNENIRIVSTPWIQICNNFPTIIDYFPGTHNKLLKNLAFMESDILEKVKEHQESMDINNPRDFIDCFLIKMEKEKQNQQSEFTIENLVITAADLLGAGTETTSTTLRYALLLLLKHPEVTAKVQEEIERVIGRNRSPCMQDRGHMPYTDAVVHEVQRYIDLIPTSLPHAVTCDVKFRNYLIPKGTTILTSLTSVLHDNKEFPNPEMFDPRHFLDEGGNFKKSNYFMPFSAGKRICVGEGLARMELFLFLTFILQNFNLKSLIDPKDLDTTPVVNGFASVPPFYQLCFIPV

By IC50 is commonly meant the concentration that inhibits the measured activity by half. By half-life is commonly meant how long it takes for the measured level to halve. One may read the Cmax as the peak of the concentration-time curve. The term Tmax denotes the time from dosing to the highest level. For orientation: bioavailability means dose-corrected exposure relative to a reference, in per cent. Low values mean little systemic uptake, high ones much systemic uptake. `Cc1cc2n(c1)S(=O)(=O)c1ccc(C(=O)NCC[C@H]3COCCO3)cc1NC2=O` [compound represented by formula (I)]: in data set [1], the half-inhibitory concentration (IC50) is above 50 µM and the “inhibitory effect on CYP2C9 (conclusion in words)” value was “no evident inhibitory effect”. In data set [2], the IC50 is above 50 µM and the “inhibitory effect on CYP3A4 (conclusion in words)” value is given as “no evident inhibitory effect”. Moreover, in data set [3], the IC50 is above 50 µM and the “inhibitory effect on CYP1A2 (conclusion in words)” value is “no evident inhibitory effect”. Further, in data set [4], the half-inhibitory concentration (IC50) was above 50 µM and the “inhibitory effect on CYP2D6 (conclusion in words)” value is recorded as “no evident inhibitory effect”. Also, in data set [5], the half-inhibitory concentration (IC50) was above 50 µM and the “inhibitory effect on CYP2C19 (conclusion in words)” value is “no evident inhibitory effect”. In addition, in data set [6] (1 mg/kg, iv 1 mpk), the clearance is 8.5 mL/min/kg and the half-life is 57 min. For the same compound, the AUC(0-t) in data set [6] (1 mg/kg, iv 1 mpk, read-out: AUC0-last) is 4.82 µM·h. For the same compound, the Vd in data set [6] (1 mg/kg, iv 1 mpk, read-out: Vdss) was 0.56 L/kg. Besides, in data set [6] (10 mg/kg, po 10 mpk), the concentration peaked (Cmax) at 8.57 µM, the time to peak (Tmax) is 30 min and the bioavailability turned out to be 65%. In addition, the AUC(0-t) in data set [6] (10 mg/kg, po 10 mpk, read-out: AUC0-24h) came to 31.1 µM·h.
